Measured values: patent publication US9161910B2, “Method and pharmaceutical compositions for trans-buccal mucosa treatment of postprandial hyperglycaemia in type II diabetes” (priority 2009, dated 2015)
Like-named read-outs stand apart in the source and are kept apart here.

Experiments:
[1] = cited from earlier work; for distribution volume: in vivo
[2] = cited from earlier work; for solubility in alcohol: alcohol / ethanol
plasma carrier proteins = settings: cited from earlier work
[3] = Complete dissolution in hydroalcoholic solution according to the invention; assay type: physicochemical; settings: approximately 50° hydroalcoholic solution
Excerpt: The term “dissolved in a stable and a complete manner” means a state of dissolution restoring the active principle to the molecular state, slightly ionized in its dissolving medium, the state of dissolution preventing any possibility of inopportune recrystallization.

obese, diabetic patients = settings: continuous perfusion, 6 weeks; cited from earlier work
[4] = oral; cited from earlier work

N#C[C@@H]1CCCN1C(=O)CNC12CC3CC(CC(O)(C3)C1)C2 [Vildagliptin, vildagliptin]
bioavailability ([1]; oral): approximately 85%
solubility in organic solvents [2]: soluble in water and organic solvents
solubility in water [2]: soluble in water

CN(C)C(=N)N=C(N)N [Metformin, metformin]
binding to plasma proteins (in words) (plasma carrier proteins): not bound to plasma proteins

N[C@@H](CC(=O)N1CCn2c(nnc2C(F)(F)F)C1)Cc1cc(F)c(F)cc1F [Sitagliptin, sitagliptin]
bioavailability ([1]; oral): ~87%
mean distribution volume in the organism ([1]; single dose of 100 mg intravenous): approximately 198 L
binding to plasma proteins (in words) (plasma carrier proteins): bound to plasma proteins
solubility in organic solvents [2]: soluble in water and certain organic solvents
solubility in water [2]: soluble in water

COc1ccc(Cl)cc1C(=O)NCCc1ccc(S(=O)(=O)NC(=O)NC2CCCCC2)cc1 [glibenclamide]
complete dissolution, amount [3]: 1 mg per 1 mL
solubility in alcohol [2]: slightly soluble in ethanol
solubility in water [2]: practically insoluble in water

glucagon-like peptide-1 [GLP-1]
reduction in postprandial glycemia (obese, diabetic patients): 5.5 mM
reduction of hemoglobin HbAlC (obese, diabetic patients): 1.3%

CCOc1cc(CC(=O)N[C@@H](CC(C)C)c2ccccc2N2CCCCC2)ccc1C(=O)O [Repaglinide, repaglinide]
inter-individual variability in plasma concentration [4]: 60%
intra-individual variability in plasma concentration [4]: 35%
onset of insulinotropic response after taking [4]: approximately 30 min

Cc1ccc(S(=O)(=O)NC(=O)NN2CC3CCCC3C2)cc1 (stereo not drawn) [Gliclazide, gliclazide]
complete dissolution, amount [3]: 3.5 mg for 0.75 mL
distribution volume [1]: approximately 30 L
distribution volume ([1]; listed as gliclazide): 30 L
hepatic metabolism (in words) ([1]; oral): extensively metabolized by the first hepatic passage
binding to plasma carrier proteins (plasma carrier proteins): 95%
solubility in alcohol [2]: slightly soluble in alcohol
solubility in water [2]: insoluble in water
